In patent US8865894B2, “Oxazolidin-2-one compounds and uses thereof” (Novartis AG, priority 2012, dated 2014):
Like-named read-outs stand apart in the source and are kept apart here.

How the values were obtained:
Type in all cases: cell-based
[1] = target: T1, human PI3Kbeta p110 catalytic subunit (Rat-1 pBABEpuro Myr-HA-hp110 beta) (Homo sapiens, UniProt P42338); assay: Cellular assay PI3Kbeta (p-Akt(S473) SureFire, Rat-1_PI3beta cells)
T1 construct: Myr (myristoylation signal) (N); HA (N); expressed in transfected cells; host or cells: Rat-1
From the text: (§1) AlphaScreen (Amplified Luminescent Proximity Homogeneous Assay, ALPHA, Perkin Elmer) is a non-radioactive bead-based proximity assay technology to study biomolecular interactions in a homogenous microtiter plate format. The brand name SureFire denotes AlphaScreen assays that are adapted to quantify the phosphorylation of endogenous cellular proteins in cell lysates, by using matched antibody pairs, which consist of an anti-phospho-kinase and an anti-kinase antibody. The assay allows characterization of kinase signaling in cells as well as measurement of kinase inhibitor effects. The AlphaScreen technology provides several advantages over standard assay techniques such as ELISA, as it avoids time-consuming washing procedures and reduces plate handling. Furthermore, it is miniaturizable at least to a 384-well format and provides sensitivity down to the femtomolar range, dependent on the affinity of the antibodies included in the individual AlphaScreen SureFire assay kit. High sensitivity is reached by an intrinsic amplification mechanism, which involves production of singlet oxygen molecules. SureFire assay kits are commercially available for specific targets and include pairs of validated antibodies (PerkinElmer). This report describes common procedures applied for AlphaScreen SureFire assays and respective semi-automated steps for routine kinase inhibitor profiling in cell-based assays.
(§2) The Rat-1 cell lines stably overexpressing activated PI3K class I isoforms Rat-1 pBABEpuro Myr-HA-hp110 delta (Rat-1_PI3Kdelta) and Rat-1 pBABEpuro Myr-HA-hp110alpha (Rat-1_PI3Kalpha) and Rat-1 pBABEpuro Myr-HA-hp110 beta (Rat-1_PI3beta) were prepared as described (Maira S M, Stauffer F, Brueggen J, Furet P, Schnell C, Fritsch C, Brachmann S, Chène P, de Pover A, Schoemaker K, Fabbro D, Gabriel D, Simonen M, Murphy L, Finan P, Sellers W, García-Echeverría C (2008), Mol Cancer Ther. 7:1851-63 and Maira S M, Pecchi S, Brueggen J, Huh K, Schnell C, Fritsch C, Nagel T, Wiesmann M, Brachmann S, Dorsch M, Chène P, Schoemaker K, De Pover A, Menezes D, Fabbro D, Sellers W, García-Echeverría C, Voliva C F (2011), Mol. Cancer Ther., accepted). All cell lines were cultivated in complete growth medium (DMEM high glucose, 10% (v/v) fetal bovine serum, 1% (v/v) MEM NEAA, 10 mM HEPES, 2 mM L-glutamine, puromycin (10 μg/mL for Rat-1_PI3Kdelta and Rat-1_PI3Kalpha, 4 ug/mL for Rat-1_PI3beta), 1% (v/v) Pen/Strep) to 90% confluency at 37° C./5% CO2/90% humidity in a humidified CO2 incubator and were split twice a week.
(§3) The following materials were used for p-AKT(S473) detection in Rat-1 cell lysates: Dulbecco's modified Eagle's medium (DMEM) high glucose (Gibco Invitrogen, Basel, Switzerland, Cat. No. 41965), Heat Inactivated Fetal Bovine Serum, Qualified (HI FBS; Gibco Invitrogen, Basel, Switzerland, Lot. No. 16140), MEM non essential amino acids (NEAA; Gibco Invitrogen, Basel, Switzerland, Cat. No. 11140), HEPES (Gibco Invitrogen, Basel, Switzerland, Cat. No. 15630), Penicillin/Streptomycin (Pen/Strep, 100×; Gibco Invitrogen, Basel, Switzerland, Cat. No. 15140-122), L-Glutamine (Gibco Invitrogen, Basel, Switzerland, Cat. No. 25030), Puromycin (Sigma Aldrich, Buchs, Switzerland, Cat. No. P9620), DMSO (MERCK, Dietikon, Switzerland, Cat. No. 8.02912.2500), H2O, MilliQ-H2O unless otherwise stated (MILLIPORE QGARDOOR1, Millipore, Zug, Switzerland), Bovine serum albumine (BSA; Sigma Aldrich, Buchs, Switzerland Cat. No. A8412), SureFire p-Akt 1/2 (Ser473) Assay Kit (PerkinElmer, Schwerzenbach, Switzerland, Cat. No. TGRAS50K).
(§4) The p-Akt(S473) SureFire assay measures the phosphorylation of endogenous cellular Akt 1/2 at Ser473 in cell lysates. Using Rat-1 cells stably expressing myr-HA-tagged versions of the human PI3Kdelta, PI3Kalpha, or PI3Kbeta p110 catalytic subunit isoforms, the assay was developed as a two-plate protocol in a 384-well format.

A2058 cells = assay: Cell cycle G2/M arrest Cytospin assay to detect tubulin binding (off-target); parameters: key: 0=no condensed DNA observed (indicating no off target activity); 1=(indicating weak off target activity); 2=(indicating medium off target activity); 3=large amount of condensed DNA observed (indicating strong off-target activity); conditions: 5 μM test item, 24 hours
Protocol: The off-target effect (evidence of tubulin binding) was measured as follows.
Cell cycle G2/M arrest Cytospin assay to detect tubulin binding (off-target) binding activities of MAPP derivatives: 5×10^5 cells A2058 cells were plated in 6-well cluster, with 2 mL of DMEM (high Glucose containing 1% sodium pyruvate, 1% glutamin and 10% FCS). 18 hours later, the test items were added at a concentration of 5 μM (spiking 1 μL of a 10 mM solution of the test item). 24 hours later, the cells were trypsinized and transferred into a 15 mL conical tube. Cells are then pelleted by centrifugation, and resuspended with PBS/0 (containing 10% FCS). Cells are counted with a CASY counter, and each samples equilibrated to 1×10^6 cells/mL. […] The staining was visually assessed for the presence of condensed DNA and given a score where 0=no condensed DNA observed (indicating no off target activity), 1=(indicating weak off target activity), 2=(indicating medium off target activity), 3=large amount of condensed DNA observed (indicating strong off-target activity).

[2] = target: T2, human PI3Kalpha p110 catalytic subunit (Rat-1 pBABEpuro Myr-HA-hp110alpha) (Homo sapiens, UniProt P42336); assay: Cellular assay PI3Kalpha (p-Akt(S473) SureFire, Rat-1_PI3Kalpha cells); conditions: 1 h compound treatment, read-out: Rat1-PI3Ka/ IC50
T2 construct: Myr (myristoylation signal) (N); HA (N); expressed in transfected cells; host or cells: Rat-1
From the text: as §1, §2, §3, §4

[3] = p-Akt(S473), 1 h compound treatment, read-out: Rat1-PI3Kb/ IC50

T1 sequence (P42338 whole entry): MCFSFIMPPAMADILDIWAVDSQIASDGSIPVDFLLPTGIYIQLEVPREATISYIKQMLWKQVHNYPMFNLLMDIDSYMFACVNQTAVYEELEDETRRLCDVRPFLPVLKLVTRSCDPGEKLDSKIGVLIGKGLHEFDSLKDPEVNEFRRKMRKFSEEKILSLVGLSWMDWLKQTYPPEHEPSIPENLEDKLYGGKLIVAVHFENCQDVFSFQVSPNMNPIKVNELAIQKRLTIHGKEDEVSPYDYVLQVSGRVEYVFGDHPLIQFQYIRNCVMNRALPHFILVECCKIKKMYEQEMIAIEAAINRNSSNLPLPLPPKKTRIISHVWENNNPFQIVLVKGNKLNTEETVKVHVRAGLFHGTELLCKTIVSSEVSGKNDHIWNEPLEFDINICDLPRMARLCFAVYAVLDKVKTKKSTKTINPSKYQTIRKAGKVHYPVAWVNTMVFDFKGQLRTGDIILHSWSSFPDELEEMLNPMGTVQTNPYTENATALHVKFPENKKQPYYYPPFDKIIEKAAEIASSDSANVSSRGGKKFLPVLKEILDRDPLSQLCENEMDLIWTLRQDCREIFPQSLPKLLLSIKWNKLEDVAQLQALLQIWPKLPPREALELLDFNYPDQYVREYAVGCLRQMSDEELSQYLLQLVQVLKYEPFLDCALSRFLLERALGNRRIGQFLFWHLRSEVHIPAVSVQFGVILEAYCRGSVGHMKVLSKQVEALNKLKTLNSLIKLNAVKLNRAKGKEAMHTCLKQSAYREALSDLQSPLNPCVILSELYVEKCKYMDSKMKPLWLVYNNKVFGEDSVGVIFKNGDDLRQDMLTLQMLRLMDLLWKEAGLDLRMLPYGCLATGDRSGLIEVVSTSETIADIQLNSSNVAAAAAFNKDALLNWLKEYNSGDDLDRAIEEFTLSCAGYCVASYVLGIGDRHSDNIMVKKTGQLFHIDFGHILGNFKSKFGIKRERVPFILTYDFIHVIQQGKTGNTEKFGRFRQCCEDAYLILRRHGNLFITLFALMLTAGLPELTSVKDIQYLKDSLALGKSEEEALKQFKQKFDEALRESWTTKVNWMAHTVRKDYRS
T1 sequence (Q63787 whole entry partner): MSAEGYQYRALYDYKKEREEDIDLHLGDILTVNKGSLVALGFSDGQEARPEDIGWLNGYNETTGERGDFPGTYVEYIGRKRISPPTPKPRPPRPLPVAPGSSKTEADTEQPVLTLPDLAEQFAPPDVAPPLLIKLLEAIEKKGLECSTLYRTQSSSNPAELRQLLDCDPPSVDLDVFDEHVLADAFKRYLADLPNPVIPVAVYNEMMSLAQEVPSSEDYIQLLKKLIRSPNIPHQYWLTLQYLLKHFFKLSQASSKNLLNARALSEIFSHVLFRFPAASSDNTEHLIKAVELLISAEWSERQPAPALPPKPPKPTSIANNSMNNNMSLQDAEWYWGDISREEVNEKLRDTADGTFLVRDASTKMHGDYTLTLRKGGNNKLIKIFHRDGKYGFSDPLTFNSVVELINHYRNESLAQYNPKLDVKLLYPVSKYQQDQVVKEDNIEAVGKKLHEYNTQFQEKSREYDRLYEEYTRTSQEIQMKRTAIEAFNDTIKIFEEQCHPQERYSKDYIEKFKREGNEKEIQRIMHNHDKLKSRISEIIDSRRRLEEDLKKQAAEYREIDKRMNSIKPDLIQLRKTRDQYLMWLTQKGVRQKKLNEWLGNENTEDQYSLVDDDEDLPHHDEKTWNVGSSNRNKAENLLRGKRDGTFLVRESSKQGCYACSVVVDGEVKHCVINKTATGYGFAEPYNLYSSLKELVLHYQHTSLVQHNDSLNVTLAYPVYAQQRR
T2 sequence (P42336 whole entry): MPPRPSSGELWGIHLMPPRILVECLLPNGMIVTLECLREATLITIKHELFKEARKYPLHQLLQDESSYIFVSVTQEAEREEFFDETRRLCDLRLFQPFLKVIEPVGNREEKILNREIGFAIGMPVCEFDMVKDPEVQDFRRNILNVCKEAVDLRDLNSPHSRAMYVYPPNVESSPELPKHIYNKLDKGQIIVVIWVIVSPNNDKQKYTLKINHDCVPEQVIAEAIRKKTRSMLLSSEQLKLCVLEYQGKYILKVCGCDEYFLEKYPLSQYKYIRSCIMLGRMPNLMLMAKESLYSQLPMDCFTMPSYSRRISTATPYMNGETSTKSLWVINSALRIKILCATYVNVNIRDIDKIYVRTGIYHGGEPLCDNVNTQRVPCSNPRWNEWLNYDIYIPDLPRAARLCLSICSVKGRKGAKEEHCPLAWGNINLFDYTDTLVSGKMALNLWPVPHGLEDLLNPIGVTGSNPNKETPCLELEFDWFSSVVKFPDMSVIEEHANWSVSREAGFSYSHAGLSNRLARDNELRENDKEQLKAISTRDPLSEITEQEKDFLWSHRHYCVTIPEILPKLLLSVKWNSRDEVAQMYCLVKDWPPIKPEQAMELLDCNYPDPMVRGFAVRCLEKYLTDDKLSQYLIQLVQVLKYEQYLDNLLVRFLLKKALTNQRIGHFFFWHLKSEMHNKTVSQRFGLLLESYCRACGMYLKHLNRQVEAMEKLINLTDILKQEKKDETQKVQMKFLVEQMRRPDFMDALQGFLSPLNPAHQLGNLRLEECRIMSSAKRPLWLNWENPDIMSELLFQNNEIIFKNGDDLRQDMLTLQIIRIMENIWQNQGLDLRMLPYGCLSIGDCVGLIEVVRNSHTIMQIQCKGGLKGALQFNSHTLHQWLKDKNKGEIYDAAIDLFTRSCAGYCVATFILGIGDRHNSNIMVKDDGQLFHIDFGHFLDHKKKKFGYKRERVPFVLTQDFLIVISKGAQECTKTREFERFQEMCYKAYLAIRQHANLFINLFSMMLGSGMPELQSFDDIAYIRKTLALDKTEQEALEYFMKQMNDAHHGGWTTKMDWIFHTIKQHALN
T2 sequence (Q63787 whole entry partner): as the sequence (Q63787 whole entry partner) above

SMILES | IC50 ([1]; fourth measurement, outlier, read-out: Rat1-PI3Kb IC50, fourth measurement (footnote)) | IC50 [1, 3] | Score (condensed DNA, G2/M arrest; off-target tubulin binding) (A2058 cells) | IC50 [2]
C[C@H]1COC(=O)N1c1cc(-c2cnc(N)nc2C(F)(F)F)nc(N2CCOCC2)n1 [Example 1, (S)-3-(2′-Amino-2-morpholin-4-yl-4′-trifluoromethyl-[4,5′]bipyrimidinyl-6-yl)-4-methyl-oxazolidin-2-one] | 3900 nM | 65 nM | 0 | 48 nM
C[C@H]1CN(c2cc(-c3cnc(N)nc3C(F)(F)F)nc(N3CCOCC3)n2)C(=O)O1 [Example 16, (S)-3-(2′-Amino-2-morpholin-4-yl-4′-trifluoromethyl-[4,5′]bipyrimidinyl-6-yl)-5-methyl-oxazolidin-2-one] |  | 160 nM | 0 | 108 nM
CC1(CO)COC(=O)N1c1cc(-c2cnc(N)nc2C(F)(F)F)nc(N2CCOCC2)n1 (racemic) [Example 3, 3-(2′-amino-2-morpholino-4′-(trifluoromethyl)-4,5′-bipyrimidin-6-yl)-4-(hydroxymethyl)-4-methyloxazolidin-2-one] |  | 193 nM | 0 | 147 nM
Nc1ncc(-c2cc(N3C(=O)O[C@@H]4[C@@H](O)CC[C@@H]43)nc(N3CCOCC3)n2)c(C(F)(F)F)n1 (racemic) [Example 22, (3aR*,6R*,6aR*)-3-(2′-Amino-2-morpholino-4′-(trifluoromethyl)-[4,5′-bipyrimidin]-6-yl)-6-hydroxyhexahydro-2H-cyclopenta[d]oxazol-2-one] |  | 77 nM | 0 | 95 nM
C[C@H]1OC(=O)N(c2cc(-c3cnc(N)nc3C(F)(F)F)nc(N3CCOCC3)n2)[C@H]1COC=O [Example 12, Formic acid (4S,5R)-3-(2′-amino-2-morpholin-4-yl-4′-trifluoromethyl-[4,5′]bipyrimidinyl-6-yl)-5-methyl-2-oxo-oxazolidin-4-ylmethyl ester] |  | 123 nM | 0 | 113 nM
Nc1ncc(-c2cc(N3C[C@H](CO)OC3=O)nc(N3CCOCC3)n2)c(C(F)(F)F)n1 [Example 20, (R)-3-(2′-Amino-2-morpholin-4-yl-4′-trifluoromethyl-[4,5′]bipyrimidinyl-6-yl)-5-hydroxymethyl-oxazolidin-2-one] |  | 124 nM | 1-2 | 158 nM
C[C@H]1[C@@H](CO)OC(=O)N1c1cc(-c2cnc(N)nc2C(F)(F)F)nc(N2CCOCC2)n1 [Example 19, (4S,5S)-3-(2′-Amino-2-morpholin-4-yl-4′-trifluoromethyl-[4,5′]bipyrimidinyl-6-yl)-5-hydroxymethyl-4-methyl-oxazolidin-2-one] |  | 71 nM | 0 | 50 nM
[2H]C1([2H])OC([2H])([2H])C([2H])([2H])N(c2nc(-c3cnc(N)nc3C(F)(F)F)cc(N3C(=O)OC[C@@H]3C)n2)C1([2H])[2H] [Example 17, (S)-3-(2′-amino-2-D8-morpholino-4′-(trifluoromethyl)-[4,5′-bipyrimidin]-6-yl)-4-methyloxazolidin-2-one] |  | 171 nM | 0 | 178 nM
Nc1ncc(-c2cc(N3C(=O)O[C@H]4COC[C@H]43)nc(N3CCOCC3)n2)c(C(F)(F)F)n1 [Example 21, (3aR,6aR)-3-(2′-amino-2-morpholino-4′-(trifluoromethyl)-[4,5′-bipyrimidin]-6-yl)-tetrahydrofuro[3,4-d]oxazol-2(3H)-one] |  | 46 nM | 0 | 85 nM
C[C@H]1[C@H](CO)OC(=O)N1c1cc(-c2cnc(N)nc2C(F)(F)F)nc(N2CCOCC2)n1 [Example 15, (4S,5R)-3-(2′-Amino-2-morpholin-4-yl-4′-trifluoromethyl-[4,5′]bipyrimidinyl-6-yl)-5-hydroxymethyl-4-methyl-oxazolidin-2-one] |  | 114 nM | 0 | 79 nM
